Measured values published in patent US20240122182A1, “PESTICIDALLY ACTIVE HETEROCYCLIC DERIVATIVES WITH SULFUR CONTAINING SUBSTITUENTS” (SYNGENTA CROP PROTECTION AG, priority 2021, published 2024).

How the values were obtained:
Format in all cases: in vivo
[1] = system: Diabrotica Balteata (Corn Root Worm); experiment: Activity against Diabrotica balteata (corn root worm), maize sprouts sprayed; details: 96 h, application rate of 200 ppm, L2 larvae, 4 days after infestation, read-out: effect in at least one of the two categories (mortality or growth inhibition)
Method: Maize sprouts placed onto an agar layer in 24-well microtiter plates were treated with aqueous test solutions prepared from 10′000 ppm DMSO stock solutions by spraying. After drying, the plates were infested with L2 larvae (6 to 10 per well). The samples were assessed for mortality and growth inhibition in comparison to untreated samples 4 days after infestation.

[2] = system: Nilaparvata lugens (Brown Plant Hopper); experiment: Activity against Nilaparvata lugens (brown plant hopper), larvicide, systemic into water; details: 168 h, application rate of 12.5 ppm, N3 nymphs, 7 days after infestation
Method: Larvicide, systemic into water Rice plants cultivated in a nutritive solution were treated with the diluted test solutions into nourishing cultivation system. 1 day after application plants were infested with ˜20 N3 nymphs. 7 days after infestation samples were assessed for mortality and growth regulation.

[3] = system: Plutella xylostella (Diamond Back Moth); experiment: Activity against Plutella xylostella (diamond back moth), artificial diet; details: 192 h, application rate of 200 ppm, eggs, 8 days after infestation, read-out: effect in at least one of the two categories (mortality or growth inhibition)
Method: 24-well microtiter plates with artificial diet were treated with aqueous test solutions prepared from 10′000 ppm DMSO stock solutions by pipetting. After drying, Plutella eggs were pipetted through a plastic stencil onto a gel blotting paper and the plate was closed with it. The samples were assessed for mortality and growth inhibition in comparison to untreated samples 8 days after infestation.

[4] = system: Myzus persicae (Green Peach Aphid); experiment: Activity against Myzus persicae (green peach aphid), feeding/contact activity; details: 144 h, application rate of 200 ppm, mixed ages, 6 days after infestation
Method: Sunflower leaf discs were placed onto agar in a 24-well microtiter plate and sprayed with aqueous test solutions prepared from 10′000 ppm DMSO stock solutions. After drying, the leaf discs were infested with an aphid population of mixed ages. The samples were assessed for mortality 6 days after infestation.

[5] = system: Chilo suppressalis (Striped Rice Stemborer); experiment: Activity against Chilo suppressalis (striped rice stemborer), artificial diet; details: 144 h, application rate of 200 ppm, L2 larvae, 6 days after infestation, read-out: control (mortality, anti-feeding effect, growth inhibition)
Method: 24-well microtiter plates with artificial diet were treated with aqueous test solutions prepared from 10′000 ppm DMSO stock solutions by pipetting. After drying, the plates were infested with L2 larvae (6-8 per well). The samples were assessed for mortality, anti-feeding effect, and growth inhibition in comparison to untreated samples 6 days after infestation. Control of Chilo suppressalis by a test sample is given when at least one of the categories mortality, anti-feedant effect, and growth inhibition is higher than the untreated sample.

[6] = system: Carpocapsa (Cydia) Pomonella (Codling Moth); experiment: Activity against Carpocapsa (Cydia) pomonella (codling moth), larvicide, feeding/contact; details: 336 h, application rate of 12.5 ppm, L1 larvae, 14 days after infestation, read-out: effect in at least one of the two categories (mortality or growth inhibition)
Method: Diet cubes coated with paraffin were sprayed with diluted test solutions in an application chamber. After drying off the treated cubes (10 replicates) were infested with 1 L1 larvae. Samples were incubated at 26-27° C. and checked 14 days after infestation for mortality and growth inhibition. The following compounds gave an effect of at least 80% in at least one of the two categories (mortality or growth inhibition) at an application rate of 12.5 ppm: P1, P2, P3, P5, P9, P10, P11, P12, P14, P17, P19, P20, P21, P23, P24, P30, P31.

[7] = system: Spodoptera littoralis (Egyptian Cotton Leaf Worm); experiment: Activity against Spodoptera littoralis (Egyptian cotton leaf worm), cotton leaf discs sprayed; details: foliar, 72 h, application rate of 200 ppm, L1 larvae, 3 days after infestation, read-out: control (mortality, anti-feeding effect, growth inhibition)
Method: Cotton leaf discs were placed onto agar in 24-well microtiter plates and sprayed with aqueous test solutions prepared from 10′000 ppm DMSO stock solutions. After drying the leaf discs were infested with five L1 larvae. The samples were assessed for mortality, anti-feeding effect, and growth inhibition in comparison to untreated samples 3 days after infestation. Control of Spodoptera littoralis by a test sample is given when at least one of the categories mortality, anti-feedant effect, and growth inhibition is higher than the untreated sample.

[8] = system: Euschistus heros (Neotropical Brown Stink Bug); experiment: Activity against Euschistus heros (neotropical brown stink bug), soybean leaves sprayed; details: 120 h, application rate of 200 ppm, N2 nymphs, 5 days after infestation, read-out: effect in at least one of the two categories (mortality or growth inhibition)
Method: Soybean leaves on agar in 24-well microtiter plates were sprayed with aqueous test solutions prepared from 10′000 ppm DMSO stock solutions. After drying the leaves were infested with N2 nymphs. The samples were assessed for mortality and growth inhibition in comparison to untreated samples 5 days after infestation.

[9] = system: Myzus persicae (Green Peach Aphid); experiment: Activity against Myzus persicae (green peach aphid), systemic activity; details: 144 h, test rate of 24 ppm, pea seedling roots in test solution, 6 days
Method: Roots of pea seedlings infested with an aphid population of mixed ages were placed directly into aqueous test solutions prepared from 10′000 DMSO stock solutions. The samples were assessed for mortality 6 days after placing seedlings into test solutions.

CCS(=O)(=O)c1ccc(C2CC2)nc1-c1cc2c(cn1)N(CC(F)(F)C(F)(F)F)C(=O)CC2 [P14, 6-(6-cyclopropyl-3-ethylsulfonyl-2-pyridyl)-1-(2,2,3,3,3-pentafluoropropyl)-3,4-dihydro-1,7-naphthyridin-2-one]
≥ 80%: percent effect (mortality or growth inhibition) at 200 ppm [1] | mortality at 12.5 ppm [2] | percent effect (mortality or growth inhibition) at 200 ppm [3] | mortality at 200 ppm [4] | mortality at 200 ppm [5] | percent effect (mortality or growth inhibition) at 12.5 ppm [6] | mortality at 200 ppm [7]

CCS(=O)(=O)c1cc(OCC(C)(F)F)cnc1-c1cc2c(cn1)N(CC(F)(F)C(F)(F)F)C(=O)OC2 [P31, 6-[5-(2,2-difluoropropoxy)-3-ethylsulfonyl-2-pyridyl]-1-(2,2,3,3,3-pentafluoropropyl)-4H-pyrido[3,4-d][1,3]oxazin-2-one]
≥ 80%: percent effect (mortality or growth inhibition) at 200 ppm [1] | mortality at 12.5 ppm [2] | percent effect (mortality or growth inhibition) at 200 ppm [3] | mortality at 200 ppm [5] | percent effect (mortality or growth inhibition) at 12.5 ppm [6] | mortality at 200 ppm [7]

CCS(=O)(=O)c1ccc(C2CC2)nc1-c1cc2c(cn1)N(CC(F)(F)C(F)(F)F)C(=O)OC2 [P17, 6-(6-cyclopropyl-3-ethylsulfonyl-2-pyridyl)-1-(2,2,3,3,3-pentafluoropropyl)-4H-pyrido[3,4-d][1,3]oxazin-2-one]
≥ 80%: percent effect (mortality or growth inhibition) at 200 ppm [1] | mortality at 12.5 ppm [2] | percent effect (mortality or growth inhibition) at 200 ppm [3] | mortality at 200 ppm [4] | mortality at 200 ppm [5] | percent effect (mortality or growth inhibition) at 12.5 ppm [6] | mortality at 200 ppm [7]

CCS(=O)(=O)c1cc(OC(C)(C)C#N)cnc1-c1cc2c(cn1)N(CC(F)(F)C(F)(F)F)C(=O)CC2 [P20, 2-[[5-ethylsulfonyl-6-[2-oxo-1-(2,2,3,3,3-pentafluoropropyl)-3,4-dihydro-1,7-naphthyridin-6-yl]-3-pyridyl]oxy]-2-methyl-propanenitrile]
≥ 80%: percent effect (mortality or growth inhibition) at 200 ppm [1] | mortality at 12.5 ppm [2] | percent effect (mortality or growth inhibition) at 200 ppm [3] | mortality at 200 ppm [4] | mortality at 200 ppm [5] | percent effect (mortality or growth inhibition) at 200 ppm [8] | percent effect (mortality or growth inhibition) at 12.5 ppm [6] | mortality at 200 ppm [7]

CCS(=O)(=O)c1cc(N(C)C(C)=O)cnc1-c1cc2c(cn1)N(CC(F)(F)C(F)(F)F)C(=O)OC2 [P18, N-[5-ethylsulfonyl-6-[2-oxo-1-(2,2,3,3,3-pentafluoropropyl)-4H-pyrido[3,4-d][1,3]oxazin-6-yl]-3-pyridyl]-N-methyl-acetamide]
≥ 80%: percent effect (mortality or growth inhibition) at 200 ppm [3] | mortality at 24 ppm [9] | mortality at 200 ppm [4] | mortality at 200 ppm [5] | mortality at 200 ppm [7]

CCS(=O)(=O)c1cc(C(F)(F)F)cnc1-c1cc2c(cn1)N(CC(F)(F)C(F)(F)F)C(=O)OC2 [P10, 6-[3-ethylsulfonyl-5-(trifluoromethyl)-2-pyridyl]-1-(2,2,3,3,3-pentafluoropropyl)-4H-pyrido[3,4-d][1,3]oxazin-2-one]
≥ 80%: percent effect (mortality or growth inhibition) at 200 ppm [1] | mortality at 12.5 ppm [2] | percent effect (mortality or growth inhibition) at 200 ppm [3] | mortality at 200 ppm [4] | mortality at 200 ppm [5] | percent effect (mortality or growth inhibition) at 12.5 ppm [6] | mortality at 200 ppm [7]

CCS(=O)(=O)c1cc(C(F)(F)F)cnc1-c1cc2c(cn1)N(CC(F)(F)C(F)(F)F)C(=O)CC2 [P9, 6-[3-ethylsulfonyl-5-(trifluoromethyl)-2-pyridyl]-1-(2,2,3,3,3-pentafluoropropyl)-3,4-dihydro-1,7-naphthyridin-2-one]
≥ 80%: percent effect (mortality or growth inhibition) at 200 ppm [1] | mortality at 12.5 ppm [2] | percent effect (mortality or growth inhibition) at 200 ppm [3] | mortality at 200 ppm [4] | mortality at 200 ppm [5] | percent effect (mortality or growth inhibition) at 12.5 ppm [6] | mortality at 200 ppm [7]

CCS(=O)(=O)c1cc(OCC(C)(F)F)cnc1-c1cc2c(cn1)N(CC(F)(F)C(F)(F)F)C(=O)CC2 [P24, 6-[5-(2,2-difluoropropoxy)-3-ethylsulfonyl-2-pyridyl]-1-(2,2,3,3,3-pentafluoropropyl)-3,4-dihydro-1,7-naphthyridin-2-one]
≥ 80%: percent effect (mortality or growth inhibition) at 200 ppm [1] | mortality at 12.5 ppm [2] | percent effect (mortality or growth inhibition) at 200 ppm [3] | mortality at 200 ppm [4] | mortality at 200 ppm [5] | percent effect (mortality or growth inhibition) at 200 ppm [8] | percent effect (mortality or growth inhibition) at 12.5 ppm [6] | mortality at 200 ppm [7]

CCS(=O)(=O)c1cc(C2(C#N)CC2)cnc1-c1cc2c(cn1)N(CC(F)(F)F)C(=O)OC2 [P34, 1-[5-ethylsulfonyl-6-[2-oxo-1-(2,2,2-trifluoroethyl)-4H-pyrido[3,4-d][1,3]oxazin-6-yl]-3-pyridyl]cyclopropanecarbonitrile]
≥ 80%: percent effect (mortality or growth inhibition) at 200 ppm [1] | percent effect (mortality or growth inhibition) at 200 ppm [3] | mortality at 24 ppm [9] | mortality at 200 ppm [4]

CCS(=O)(=O)c1cc(C2CC2)cnc1-c1cc2c(cn1)N(CC(F)(F)C(F)(F)F)C(=O)CC2 [P19, 6-(5-cyclopropyl-3-ethylsulfonyl-2-pyridyl)-1-(2,2,3,3,3-pentafluoropropyl)-3,4-dihydro-1,7-naphthyridin-2-one]
≥ 80%: percent effect (mortality or growth inhibition) at 200 ppm [1] | mortality at 12.5 ppm [2] | percent effect (mortality or growth inhibition) at 200 ppm [3] | mortality at 200 ppm [5] | percent effect (mortality or growth inhibition) at 12.5 ppm [6] | mortality at 200 ppm [7]

CCS(=O)(=O)c1cc(C(C)(C)F)cnc1-c1cc2c(cn1)N(CC(F)(F)C(F)(F)F)C(=O)OC2 [P30, 6-[3-ethylsulfonyl-5-(1-fluoro-1-methyl-ethyl)-2-pyridyl]-1-(2,2,3,3,3-pentafluoropropyl)-4H-pyrido[3,4-d][1,3]oxazin-2-one]
≥ 80%: percent effect (mortality or growth inhibition) at 200 ppm [1] | mortality at 12.5 ppm [2] | percent effect (mortality or growth inhibition) at 200 ppm [3] | mortality at 200 ppm [5] | percent effect (mortality or growth inhibition) at 12.5 ppm [6] | mortality at 200 ppm [7]
